Assay results as given in the NIST ThermoML archive (doi:10.1016/j.jct.2016.06.017).
Numbers after ± are expanded uncertainties.

Tests used:
[1] = xn = mol fraction of the nth substance listed; settings: 100 kPa, Liquid, Frequency=0.01 MHz, Alternating current cell with electrodes
[2] = 100 kPa, Liquid, Frequency=0.01 MHz, Alternating current cell with electrodes

Question: With O=C1CCCO1 [γ-butyrolactone] + CCCCn1cc[n+](C)c1.N#CN=C=[N-] as the compound, how does the electrical conductivity ([1]; 273.15 K, x2 = 0.0504) read?
Answer: 1.05 ± 0.015 S/m

Question: And the electrical conductivity ([1]; 273.15 K, x2 = 0.1002)?
Answer: 1.4 ± 0.015 S/m

Question: And the electrical conductivity ([1]; 273.15 K, x2 = 0.2002)?
Answer: 1.518 ± 0.015 S/m

Question: And the electrical conductivity ([1]; 273.15 K, x2 = 0.2984)?
Answer: 1.35 ± 0.014 S/m

Question: And the electrical conductivity ([1]; 273.15 K, x2 = 0.4005)?
Answer: 1.13 ± 0.012 S/m

Question: And the electrical conductivity ([1]; 273.15 K, x2 = 0.4954)?
Answer: 0.924 ± 0.01 S/m

Question: And the electrical conductivity ([1]; 273.15 K, x2 = 0.6957)?
Answer: 0.639 ± 0.007 S/m

Question: What about the electrical conductivity ([1]; 273.15 K, x2 = 0.8871) of the same compound?
Answer: 0.454 ± 0.005 S/m

Question: What about the electrical conductivity ([1]; 283.15 K, x2 = 0.0504) of the same compound?
Answer: 1.27 ± 0.018 S/m

Question: And the electrical conductivity ([1]; 283.15 K, x2 = 0.1002)?
Answer: 1.71 ± 0.018 S/m

Question: And the electrical conductivity ([1]; 283.15 K, x2 = 0.2002)?
Answer: 1.918 ± 0.019 S/m

Question: What about the electrical conductivity ([1]; 283.15 K, x2 = 0.2984) of the same compound?
Answer: 1.77 ± 0.018 S/m

Question: And the electrical conductivity ([1]; 283.15 K, x2 = 0.4005)?
Answer: 1.54 ± 0.016 S/m

Question: And the electrical conductivity ([1]; 283.15 K, x2 = 0.4954)?
Answer: 1.32 ± 0.014 S/m

Question: And the electrical conductivity ([1]; 283.15 K, x2 = 0.6957)?
Answer: 0.968 ± 0.01 S/m

Question: What about the electrical conductivity ([1]; 283.15 K, x2 = 0.8871) of the same compound?
Answer: 0.736 ± 0.008 S/m

Question: What about the electrical conductivity ([1]; 293.15 K, x2 = 0.0504) of the same compound?
Answer: 1.5 ± 0.022 S/m

Question: And the electrical conductivity ([1]; 293.15 K, x2 = 0.1002)?
Answer: 2.03 ± 0.022 S/m

Question: And the electrical conductivity ([1]; 293.15 K, x2 = 0.2002)?
Answer: 2.35 ± 0.024 S/m

Question: And the electrical conductivity ([1]; 293.15 K, x2 = 0.2984)?
Answer: 2.24 ± 0.023 S/m

Question: What about the electrical conductivity ([1]; 293.15 K, x2 = 0.4005) of the same compound?
Answer: 2.012 ± 0.02 S/m

Question: What about the electrical conductivity ([1]; 293.15 K, x2 = 0.4954) of the same compound?
Answer: 1.78 ± 0.018 S/m

Question: And the electrical conductivity ([1]; 293.15 K, x2 = 0.6957)?
Answer: 1.37 ± 0.014 S/m

Question: What about the electrical conductivity ([1]; 293.15 K, x2 = 0.8871) of the same compound?
Answer: 1.09 ± 0.011 S/m

Question: And the electrical conductivity ([1]; 298.15 K, x2 = 0.0504)?
Answer: 1.62 ± 0.024 S/m

Question: What about the electrical conductivity ([1]; 298.15 K, x2 = 0.1002) of the same compound?
Answer: 2.2 ± 0.024 S/m

Question: And the electrical conductivity ([1]; 298.15 K, x2 = 0.2002)?
Answer: 2.58 ± 0.026 S/m

Question: And the electrical conductivity ([1]; 298.15 K, x2 = 0.2984)?
Answer: 2.49 ± 0.025 S/m

Question: And the electrical conductivity ([1]; 298.15 K, x2 = 0.4005)?
Answer: 2.27 ± 0.023 S/m

Question: What about the electrical conductivity ([1]; 298.15 K, x2 = 0.4954) of the same compound?
Answer: 2.03 ± 0.021 S/m

Question: And the electrical conductivity ([1]; 298.15 K, x2 = 0.6957)?
Answer: 1.606 ± 0.016 S/m

Question: And the electrical conductivity ([1]; 298.15 K, x2 = 0.8871)?
Answer: 1.3 ± 0.013 S/m

Question: And the electrical conductivity ([1]; 303.15 K, x2 = 0.0504)?
Answer: 1.74 ± 0.026 S/m

Question: What about the electrical conductivity ([1]; 303.15 K, x2 = 0.1002) of the same compound?
Answer: 2.38 ± 0.026 S/m

Question: What about the electrical conductivity ([1]; 303.15 K, x2 = 0.2002) of the same compound?
Answer: 2.814 ± 0.028 S/m

Question: What about the electrical conductivity ([1]; 303.15 K, x2 = 0.2984) of the same compound?
Answer: 2.75 ± 0.028 S/m

Question: And the electrical conductivity ([1]; 303.15 K, x2 = 0.4005)?
Answer: 2.53 ± 0.026 S/m

Question: And the electrical conductivity ([1]; 303.15 K, x2 = 0.4954)?
Answer: 2.29 ± 0.023 S/m

Question: What about the electrical conductivity ([1]; 303.15 K, x2 = 0.6957) of the same compound?
Answer: 1.85 ± 0.019 S/m

Question: And the electrical conductivity ([1]; 303.15 K, x2 = 0.8871)?
Answer: 1.53 ± 0.016 S/m

Question: What about the electrical conductivity ([1]; 313.15 K, x2 = 0.0504) of the same compound?
Answer: 1.98 ± 0.03 S/m

Question: And the electrical conductivity ([1]; 313.15 K, x2 = 0.1002)?
Answer: 2.73 ± 0.03 S/m

Question: What about the electrical conductivity ([1]; 313.15 K, x2 = 0.2002) of the same compound?
Answer: 3.301 ± 0.033 S/m

Question: And the electrical conductivity ([1]; 313.15 K, x2 = 0.2984)?
Answer: 3.29 ± 0.033 S/m

Question: And the electrical conductivity ([1]; 313.15 K, x2 = 0.4005)?
Answer: 3.101 ± 0.031 S/m

Question: What about the electrical conductivity ([1]; 313.15 K, x2 = 0.4954) of the same compound?
Answer: 2.87 ± 0.029 S/m

Question: And the electrical conductivity ([1]; 313.15 K, x2 = 0.6957)?
Answer: 2.401 ± 0.024 S/m

Question: And the electrical conductivity ([1]; 313.15 K, x2 = 0.8871)?
Answer: 2.04 ± 0.021 S/m

Question: And the electrical conductivity ([1]; 323.15 K, x2 = 0.0504)?
Answer: 2.23 ± 0.034 S/m

Question: What about the electrical conductivity ([1]; 323.15 K, x2 = 0.1002) of the same compound?
Answer: 3.09 ± 0.034 S/m

Question: And the electrical conductivity ([1]; 323.15 K, x2 = 0.2002)?
Answer: 3.81 ± 0.039 S/m

Question: What about the electrical conductivity ([1]; 323.15 K, x2 = 0.2984) of the same compound?
Answer: 3.87 ± 0.039 S/m

Question: And the electrical conductivity ([1]; 323.15 K, x2 = 0.4005)?
Answer: 3.707 ± 0.037 S/m

Question: And the electrical conductivity ([1]; 323.15 K, x2 = 0.4954)?
Answer: 3.48 ± 0.035 S/m

Question: What about the electrical conductivity ([1]; 323.15 K, x2 = 0.6957) of the same compound?
Answer: 3.009 ± 0.03 S/m

Question: And the electrical conductivity ([1]; 323.15 K, x2 = 0.8871)?
Answer: 2.625 ± 0.026 S/m

Question: What does the source list for CCCCn1cc[n+](C)c1.N#CN=C=[N-] [1-butyl-3-methylimidazolium dicyanamide] + O=C1CCCO1?
Answer: electrical conductivity ([1]; 273.15 K, x1 = 1): 0.383 ± 0.004 S/m; electrical conductivity ([1]; 283.15 K, x1 = 1): 0.636 ± 0.006 S/m; electrical conductivity ([1]; 293.15 K, x1 = 1): 0.972 ± 0.01 S/m; electrical conductivity ([1]; 298.15 K, x1 = 1): 1.17 ± 0.012 S/m; electrical conductivity ([1]; 303.15 K, x1 = 1): 1.39 ± 0.014 S/m; electrical conductivity ([1]; 313.15 K, x1 = 1): 1.89 ± 0.019 S/m; electrical conductivity ([1]; 323.15 K, x1 = 1): 2.46 ± 0.025 S/m

Question: With CCCCn1cc[n+](C)c1.N#CN=C=[N-] [1-butyl-3-methylimidazolium dicyanamide] as the compound, how does the electrical conductivity ([2]; 273.15 K) read?
Answer: 0.383 ± 0.004 S/m

Question: And the electrical conductivity ([2]; 283.15 K)?
Answer: 0.636 ± 0.006 S/m

Question: And the electrical conductivity ([2]; 293.15 K)?
Answer: 0.972 ± 0.01 S/m

Question: What about the electrical conductivity ([2]; 298.15 K) of the same compound?
Answer: 1.17 ± 0.012 S/m

Question: What about the electrical conductivity ([2]; 303.15 K) of the same compound?
Answer: 1.39 ± 0.014 S/m

Question: What about the electrical conductivity ([2]; 313.15 K) of the same compound?
Answer: 1.89 ± 0.019 S/m

Question: What about the electrical conductivity ([2]; 323.15 K) of the same compound?
Answer: 2.46 ± 0.025 S/m
